Laboratory results as given in patent US5683981A, “Cyclic bridged analogs of α-MSH and methods thereof” (Competitive Technologies, Inc., priority 1995, dated 1997).
Non-standard residues stand in square brackets, D forms with d. Residues, ends and D or L forms follow the SMILES beside them.

Assays:
[1] = system: frog skin; assay: Frog skin assay: melanosome dispersion (skin darkening) in vitro; assay type: cell-based, Rana pipiens; conditions: for Potencies Relative to α-MSH, Frog Skin Assay: tested in the range 10^-12 to 10^-9 M, compared to half-maximal effective dose of α-MSH (10^-10 M); for Creeping potency (percentage skin darkening at a particular dose increases with time): frog skin bioassay
Experimental: (§1) The peptides described above were examined to determine the relative potencies of the peptides in respect to the stimulation of a melanosome dispersion in vitro using the frog (Rana pipiens) and the lizard (Anolis carolinensis) [see Science 213:1025 (1981)]. These assays are recognized by the scientific communitty to be a fairly accurate representation of results that would be expected when the test substances are administered to vertebrates in vivo; if activity is found when the test substances are tested in the frog skin assay and the lizard skin assay, similar activity would be expected if the test substances are administered to vertebrates, i.e, darkening in the two assays would indicate that darkening would also occur in vertebrates. These assays measure the amount of light reflected from the surface of the skins in vitro. In response to melanotropic peptides, melanosomes within integumental melanocytes migrate from a perinuclear position into the dendritic processes of the pigment cells. This centrifugal organellar dispersion results in a change of color (darkening) of the skins which is measured by a Photovolt reflectometer and is expressed as the percent response compared to the initial (time zero) reflectance value. | ^a = all peptide derivatives were tested in the range of 10^-12 t | 10^-9 M concentration; compared to the halfmaximal effective dose of | aMSH in the frog skin assay (10^-10 M), or in the lizard skin assay | (10^-9 M).

[2] = system: lizard skin; assay: Lizard skin assay: melanosome dispersion (skin darkening) in vitro; assay type: cell-based, Anolis carolinensis; conditions: tested in the range 10^-12 to 10^-9 M; compared to half-maximal effective dose of α-MSH (10^-9 M)
Experimental: as §1

[3] = system: crude cell membranes of B-16 mouse melanoma cells; assay: Affinity of peptide to homogenized crude cell membranes (HPLC of supernatant and pellet extract); assay type: binding
Experimental: 0.3 μmole of peptide SHU-9002 was dissolved in 1 ml solution of homogenized crude cell membranes, obtained from about 0.6 million B-16 mouse melanoma cells, in phosphate buffer. After 5 hrs, the suspension was centrifuged at 10,000×g for 10 min. The pellet was saved and the supernatant subjected to HPLC on a C-18 column.
The pellet saved above was treated with DMSO-0.1% aq. TFA mixture (1:1), centrifuged as before and the supernatant subjected to HPLC as earlier.

Compound | Potencies Relative to α-MSH, Frog Skin Assay [1] | Potencies Relative to α-MSH, Lizard Skin Assay [2] | further results
CCCC[C@H](NC(=O)[C@H](CO)NC(=O)[C@H](Cc1ccc(O)cc1)NC(=O)[C@H](CO)NC(C)=O)C(=O)N[C@H]1CCC(=O)N[C@@H](CO)C(=O)N[C@@H](CO)C(=O)NCCCC[C@@H](C(=O)N2CCC[C@H]2C(=O)N[C@H](C(N)=O)C(C)C)NC(=O)CNC(=O)[C@H](Cc2c[nH]c3ccccc23)NC(=O)[C@H](CCCNC(=N)N)NC(=O)[C@@H](Cc2ccccc2)NC(=O)[C@H](Cc2c[nH]cn2)NC1=O [SHU-9209] | 5 |  | 
CCCC[C@H](NC(=O)[C@H](CO)NC(=O)[C@H](Cc1ccc(O)cc1)NC(=O)[C@H](CO)NC(C)=O)C(=O)N[C@H]1CCC(=O)N[C@@H](CCCNC(=N)N)C(=O)N[C@@H](CCCNC(=N)N)C(=O)NCCCC[C@@H](C(=O)N2CCC[C@H]2C(=O)N[C@H](C(N)=O)C(C)C)NC(=O)CNC(=O)[C@H](Cc2c[nH]c3ccccc23)NC(=O)[C@H](CCCNC(=N)N)NC(=O)[C@@H](Cc2ccccc2)NC(=O)[C@H](Cc2c[nH]cn2)NC1=O [SHU 9002] | 25 | 2 | Creeping potency (percentage skin darkening at a particular dose increases with time) [1]: exhibited creeping potency; Presence of peptide in supernatant after incubation with cell membranes (HPLC, C-18) ([3]; 0.3 μmole peptide in 1 ml membrane homogenate from about 0.6 million cells, phosphate buffer, 5 hrs, centrifuged 10,000×g 10 min): no evidence for the presence of the peptide SHU-9002 in the supernatant; Affinity to the cell membranes ([3]; conclusion from supernatant and pellet HPLC): marked affinity; Peptide recovered from membrane pellet (HPLC after DMSO-0.1% aq. TFA 1:1 treatment) ([3]; pellet of the 5 hrs incubation): elution pattern corresponding to the SHU-9002 was obtained
CCCC[C@@H]1NC(=O)CC[C@H](NC(=O)[C@H](CCCC)NC(=O)[C@H](CO)NC(=O)[C@H](Cc2ccc(O)cc2)NC(=O)[C@H](CO)NC(C)=O)C(=O)N[C@@H](Cc2c[nH]cn2)C(=O)N[C@H](Cc2ccccc2)C(=O)N[C@@H](CCCNC(=N)N)C(=O)N[C@@H](Cc2c[nH]c3ccccc23)C(=O)NCC(=O)N[C@H](C(=O)N2CCC[C@H]2C(=O)N[C@H](C(N)=O)C(C)C)CCCCNC(=O)[C@H](CCCC)NC1=O [SHU 9026] | 7 |  | 
CCCC[C@H](NC(=O)[C@H](CO)NC(=O)[C@H](Cc1ccc(O)cc1)NC(=O)[C@H](CO)NC(C)=O)C(=O)N[C@H]1CCC(=O)N[C@@H](CCCCN)C(=O)N[C@@H](CCCCN)C(=O)NCCCC[C@@H](C(=O)N2CCC[C@H]2C(=O)N[C@H](C(N)=O)C(C)C)NC(=O)CNC(=O)[C@H](Cc2c[nH]c3ccccc23)NC(=O)[C@H](CCCNC(=N)N)NC(=O)[C@@H](Cc2ccccc2)NC(=O)[C@H](Cc2c[nH]cn2)NC1=O [SHU 9009] | 100 | 5 | 
CC(=O)N[C@@H](CO)C(=O)N[C@@H](Cc1ccc(O)cc1)C(=O)N[C@@H](CCCCN)C(=O)N[C@@H](CCCCN)C(=O)N[C@H]1CCC(=O)N[C@@H](CCCNC(=N)N)C(=O)N[C@@H](CCCCN)C(=O)NCCCC[C@@H](C(=O)N2CCC[C@H]2C(=O)N[C@H](C(N)=O)C(C)C)NC(=O)CNC(=O)[C@H](Cc2c[nH]c3ccccc23)NC(=O)[C@H](CCCNC(=N)N)NC(=O)[C@@H](Cc2ccccc2)NC(=O)[C@H](Cc2c[nH]cn2)NC1=O [SHU 9013] | 1 | 4 | 
CCCC[C@H](NC(=O)[C@H](CO)NC(=O)[C@H](Cc1ccc(O)cc1)NC(=O)[C@H](CO)NC(C)=O)C(=O)N[C@H]1CCC(=O)N[C@H](CCCCN)C(=O)N[C@H](CCCCN)C(=O)NCCCC[C@@H](C(=O)N2CCC[C@H]2C(=O)N[C@H](C(N)=O)C(C)C)NC(=O)CNC(=O)[C@H](Cc2c[nH]c3ccccc23)NC(=O)[C@H](CCCNC(=N)N)NC(=O)[C@@H](Cc2ccccc2)NC(=O)[C@H](Cc2c[nH]cn2)NC1=O [SHU-9210] | 3.5 |  | 
CCCC[C@H](NC(C)=O)C(=O)N[C@H]1CC(=O)N[C@@H](CCCCN)C(=O)N[C@@H](CCCNC(=N)N)C(=O)NCCCC[C@@H](C(N)=O)NC(=O)[C@H](Cc2c[nH]c3ccccc23)NC(=O)[C@H](CCCNC(=N)N)NC(=O)[C@@H](Cc2ccccc2)NC(=O)[C@H](Cc2c[nH]cn2)NC1=O [SHU 9018] | 0.05 | 10 | 
CCCC[C@H](NC(=O)[C@H](CO)NC(=O)[C@H](Cc1ccc(O)cc1)NC(=O)[C@H](CO)NC(C)=O)C(=O)N[C@H]1CCC(=O)NCCCC[C@@H](C(=O)N2CCC[C@H]2C(=O)N[C@H](C(N)=O)C(C)C)NC(=O)CNC(=O)[C@H](Cc2c[nH]c3ccccc23)NC(=O)[C@H](CCCNC(=N)N)NC(=O)[C@@H](Cc2ccccc2)NC(=O)[C@H](Cc2c[nH]cn2)NC1=O [SHU-9205] | 1.3 |  | 
CC(=O)N[C@@H](CO)C(=O)N[C@@H](Cc1ccc(O)cc1)C(=O)N[C@@H](CCCCN)C(=O)N[C@@H](CCCCN)C(=O)N[C@@H](CCC(=O)O)C(=O)N[C@@H](Cc1c[nH]cn1)C(=O)N[C@H](Cc1ccccc1)C(=O)N[C@@H](CCCNC(=N)N)C(=O)N[C@@H](Cc1c[nH]c2ccccc12)C(=O)NCC(=O)N[C@@H](CCCCN)C(=O)N1CCC[C@H]1C(=O)N[C@H](C(N)=O)C(C)C [SHU 9027, Ac[Lys^3,4, DPhe^7]-α-MSH1-13NH2] (Ac-SYKKEH[dF]RWGKPV-NH2) | 0.4 |  | 
CCCC[C@H](NC(C)=O)C(=O)N[C@H]1CC(=O)N[C@@H](CCCNC(=N)N)C(=O)N[C@@H](CCCNC(=N)N)C(=O)NCCCC[C@@H](C(N)=O)NC(=O)[C@H](Cc2c[nH]c3ccccc23)NC(=O)[C@H](CCCNC(=N)N)NC(=O)[C@@H](Cc2ccccc2)NC(=O)[C@H](Cc2c[nH]cn2)NC1=O [SHU 9020] | 0.14 | 6.7 | 
CCCC[C@H](NC(=O)[C@H](CO)NC(=O)[C@H](Cc1ccc(O)cc1)NC(=O)[C@H](CO)NC(C)=O)C(=O)N[C@H]1CCC(=O)N[C@@H](CCCNC(=N)N)C(=O)N[C@@H](CCCCN)C(=O)NCCCC[C@@H](C(=O)N2CCC[C@H]2C(=O)N[C@H](C(N)=O)C(C)C)NC(=O)CNC(=O)[C@H](Cc2c[nH]c3ccccc23)NC(=O)[C@H](CCCNC(=N)N)NC(=O)[C@@H](Cc2ccccc2)NC(=O)[C@H](Cc2c[nH]cn2)NC1=O [SHU 9014] | 20 | 4 | 
CCCC[C@H](NC(=O)[C@H](CO)NC(=O)[C@H](Cc1ccc(O)cc1)NC(=O)[C@H](CO)NC(C)=O)C(=O)N[C@H]1CCC(=O)N[C@@H](CCC(=O)O)C(=O)N[C@@H](CCC(=O)O)C(=O)NCCCC[C@@H](C(=O)N2CCC[C@H]2C(=O)N[C@H](C(N)=O)C(C)C)NC(=O)CNC(=O)[C@H](Cc2c[nH]c3ccccc23)NC(=O)[C@H](CCCNC(=N)N)NC(=O)[C@@H](Cc2ccccc2)NC(=O)[C@H](Cc2c[nH]cn2)NC1=O [SHU-9207] | 1.3 |  | 
CCCC[C@H](NC(C)=O)C(=O)N[C@H]1CC(=O)N[C@@H](CCCNC(=N)N)C(=O)N[C@@H](CCCCN)C(=O)NCCCC[C@@H](C(N)=O)NC(=O)[C@H](Cc2c[nH]c3ccccc23)NC(=O)[C@H](CCCNC(=N)N)NC(=O)[C@@H](Cc2ccccc2)NC(=O)[C@H](Cc2c[nH]cn2)NC1=O [SHU 9021] | 0.25 | 13.4 | 
CCCC[C@H](NC(=O)[C@H](CO)NC(=O)[C@H](Cc1ccc(O)cc1)NC(=O)[C@H](CO)NC(C)=O)C(=O)N[C@H]1CCC(=O)N[C@@H](CCCCN)C(=O)N[C@@H](CCCNC(=N)N)C(=O)NCCCC[C@@H](C(=O)N2CCC[C@H]2C(=O)N[C@H](C(N)=O)C(C)C)NC(=O)CNC(=O)[C@H](Cc2c[nH]c3ccccc23)NC(=O)[C@H](CCCNC(=N)N)NC(=O)[C@@H](Cc2ccccc2)NC(=O)[C@H](Cc2c[nH]cn2)NC1=O [SHU 9010] | 145 |  | Creeping potency (percentage skin darkening at a particular dose increases with time) [1]: exhibited creeping potency
CCCC[C@H](NC(C)=O)C(=O)N[C@H]1CC(=O)N[C@@H](CCCCN)C(=O)N[C@@H](CCCCN)C(=O)NCCCC[C@@H](C(N)=O)NC(=O)[C@H](Cc2c[nH]c3ccccc23)NC(=O)[C@H](CCCNC(=N)N)NC(=O)[C@@H](Cc2ccccc2)NC(=O)[C@H](Cc2c[nH]cn2)NC1=O [SHU 9019] |  | 12.5 | 
